According to patent US4283398A, “Cephalosporins” (Mitsui Toatsu Chemicals, Inc., priority 1978, dated 1981):
Values after ≈ are worked out from the molar mass of the structure shown.

Legend:
[1] = tested on: Pseudomonas aeruginosa (NCTC 7244); assay: MIC in HIB medium at different inocula (turbidity); format: cell-based; details: NCTC7244, 18 h, 37° C.
Procedure: The compounds obtained in Synthesis Examples 1 and 2 were tested in the following manner.
A suspension of Pseudomonas aeruginosa (NCTC 7244) cultivated at 37° C. for 18 hours in a heart infusion broth medium (HIB medium) in a final amount of 10^5, 10^6 and 10^7 cells/ml in an HIB medium containing each of the test compounds which was obtained in the same way as in Referential Example 1 except that the maximum concentration of the test compound was 200 μg/ml. The bacterial strain was cultivated at 37° C. for 18 hours, and the turbidity of the culture broth was evaluated with the naked eye. The minimum concentration of the test compound at which no turbidity was noted was defined as MIC.

Proteus morganii (C-39) = assay: minimum growth inhibitory concentration (MIC) method; format: cell-based; details: Morganella morganii, HIA medium, 37° C., 18 hours, sodium salts
Procedure: (§1) The antibacterial activities of the cephalosporins of this invention were measured using the sodium salts of the compounds obtained in Synthesis Examples 1 and 2. The procedure and the results are shown in Referential Example 1.
(§2) Carbenicillin sodium salt (CB-PC) and cephazoline sodium salt (CEZ) were used as controls.
(§3) The antibacterial activities of the test compounds against various Gram-positive and Gram-negative bacteria were determined in a customary manner by the minimum growth inhibitory concentration method (MIC method).
(§4) A commercially available heart infusion agar medium (to be abbreviated HIA medium) was used as an assay medium, and a commercially available trypto-soy bouillon medium (to be abbreviated TSB) was used as a medium for the growth of test bacterial strains.
(§5) The test compound was diluted with the melted HIA medium to 100 μg/ml as a maximum concentration, and then serially diluted double. The dilutions were poured into sterilized Petri dishes respectively and allowed to cool and solidify to prepare plates containing the test compound.
(§6) The test bacterial strain was cultivated at 37° C. for 18 to 24 hours in the TSB medium. The culture broth was diluted to 50 to 500 times with a freshly prepared TSB culture medium, and one platinum loopful of the dilution was inoculated in each of the plates containing the test compound. The plate was incubated at 37° C. for 18 hours, and the state of growth of the strain on the plate was observed, and the minimum growth inhibitory concentration (MIC) of the test compound was determined.

[2] = tested on: Pseudomonas aeruginosa (S-1); assay: as above; format: cell-based; details: P. aeruginosa S-1, HIA medium, 37° C., 18 hours, sodium salts
Procedure: as §1, §2, §3, §4, §5, §6

[3] = tested on: Pseudomonas aeruginosa (IFO-3901); assay: as above; format: cell-based; details: IFO3901, P. aeruginosa IFO-3901, HIA medium, 37° C., 18 hours, sodium salts
Procedure: as §1, §2, §3, §4, §5, §6

Shigella flexneri (K-A) = assay: as above; format: cell-based; details: HIA medium, 37° C., 18 hours, sodium salts
Procedure: as §1, §2, §3, §4, §5, §6

[4] = tested on: Citrobacter freundii (F-34); assay: as above; format: cell-based; details: HIA medium, 37° C., 18 hours, sodium salts
Procedure: as §1, §2, §3, §4, §5, §6

[5] = tested on: Streptococcus faecalis (Hoshi); assay: as above; format: cell-based; details: Enterococcus faecalis, HIA medium, 37° C., 18 hours, sodium salts
Procedure: as §1, §2, §3, §4, §5, §6

[6] = tested on: Pseudomonas aeruginosa (718); assay: as above; format: cell-based; details: P. aeruginosa 718, HIA medium, 37° C., 18 hours, sodium salts
Procedure: as §1, §2, §3, §4, §5, §6

[7] = tested on: Enterobacter cloacae (D-49); assay: as above; format: cell-based; details: HIA medium, 37° C., 18 hours, sodium salts
Procedure: as §1, §2, §3, §4, §5, §6

[8] = blood level in rats after intramuscular administration; format: in vivo; details: rat, im, 20 mg/kg i.m., serum, read-out: Blood level after administration (average value ± standard deviation); for concentration at 0.25 h: 15 minutes; for concentration at 0.5 h: 30 minutes; for concentration at 1 h: 60 minutes; for concentration at 2 h: 120 minutes
Procedure: The compounds of this invention prepared in synthesis Examples 1 and 2 were each administered intramuscularly to rats, and the concentrations of the compounds in the blood were determined.
Each of the test compounds was intramuscularly injected into the femoral part of rats in a customary manner in a dose of 20 mg/kg for each rat. The blood was drawn by incising the cervical artery and vein at the end of 15 minutes, 30 minutes, 60 minutes, 120 minutes, and 240 minutes after the injection. The separated sera were used for the measurement of the blood level of the test compound. The concentrations of the test compounds in the sera were determined by a thin-layer cup method using Micrococcus luteus ATCC 9341 as an assay microorganism.

[9] = tested on: Klebsiella pneumonia (F-5089); assay: minimum growth inhibitory concentration (MIC) method; format: cell-based; details: Klebsiella pneumoniae, HIA medium, 37° C., 18 hours, sodium salts
Procedure: as §1, §2, §3, §4, §5, §6

Structure (SMILES): Cn1nnnc1SCC1=C(C(=O)O)N2C(=O)C(NC(=O)[C@H](NC(=O)c3cnc4c(c3O)C(=O)CCC4)c3ccc(O)cc3)C2SC1 (single isomer, unassigned) [Synthesis Example 2, 7-[D-(-)-α-(4-hydroxy-5-oxo-5,6,7,8-tetrahydroquinoline-3-carboxamide)-α-(4-hydroxyphenyl)acetamido]-3-[[(1-methyl-1H-tetrazol-5-yl)thio]methyl]-Δ^3-cephem-4-carboxylic acid]
- MIC ([1]; inoculum 10^5 cells/ml): 6.25 µg/mL (≈ 9.37 µM)
- MIC ([1]; inoculum 10^6 cells/ml): 6.25 µg/mL (≈ 9.37 µM)
- MIC ([1]; inoculum 10^7 cells/ml): 12.5 µg/mL (≈ 18.7 µM)
- MIC (Proteus morganii (C-39)): 3.13 µg/mL
- MIC [2]: 1.56 µg/mL
- MIC [3]: 12.5 µg/mL
- MIC (Shigella flexneri (K-A)): 0.1 µg/mL
- MIC [4]: 0.39 µg/mL
- MIC [5]: 25 µg/mL
- MIC [6]: 12.5 µg/mL
- MIC [7]: 3.13 µg/mL
- concentration at 0.25 h [8]: 20000 ± 1400 ng/mL
- concentration at 0.5 h [8]: 14400 ± 2500 ng/mL
- concentration at 1 h [8]: 8000 ± 4000 ng/mL
- concentration at 2 h [8]: 3200 ± 1200 ng/mL

Structure (SMILES): Cc1nnc(SCC2=C(C(=O)O)N3C(=O)[C@@H](NC(=O)Cn4cnnn4)[C@H]3SC2)s1 [CEZ, sodium 7-[1-(1H)-tetrazoylacetamido]-3-[2-(5-methyl-1,3,4-thiadiazoyl)-thiomethyl]-Δ^3, cephem-4-carboxylate, reference compound]
- MIC ([1]; inoculum 10^5 cells/ml): > 200 µg/mL
- MIC ([1]; inoculum 10^6 cells/ml): > 200 µg/mL
- MIC ([1]; inoculum 10^7 cells/ml): > 200 µg/mL
- MIC [9]: 3.13 µg/mL
- MIC (Proteus morganii (C-39)): > 100 µg/mL
- MIC [2]: > 100 µg/mL
- MIC [3]: > 100 µg/mL
- MIC (Shigella flexneri (K-A)): 1.56 µg/mL
- MIC [4]: 50 µg/mL
- MIC [5]: 25 µg/mL
- MIC [6]: > 100 µg/mL
- MIC [7]: > 100 µg/mL

Structure (SMILES): CC1(C)S[C@@H]2[C@H](NC(=O)C(C(=O)O)c3ccccc3)C(=O)N2[C@H]1C(=O)O (stereo partly drawn) [CB-PC, disodium-α-carboxybenzyl penicillin, reference compound]
- MIC ([1]; inoculum 10^5 cells/ml): 50 µg/mL
- MIC ([1]; inoculum 10^6 cells/ml): 100 µg/mL
- MIC ([1]; inoculum 10^7 cells/ml): 200 µg/mL
- MIC [9]: 50 µg/mL
- MIC (Proteus morganii (C-39)): 6.25 µg/mL
- MIC [2]: 25 µg/mL
- MIC [3]: 100 µg/mL
- MIC (Shigella flexneri (K-A)): 1.56 µg/mL
- MIC [4]: 3.13 µg/mL
- MIC [5]: 50 µg/mL
- MIC [6]: > 100 µg/mL
- MIC [7]: > 100 µg/mL

Structure (SMILES): Cn1nnnc1SCC1=C(C(=O)O)N2C(=O)C(NC(=O)[C@H](NC(=O)c3cnc4c(c3O)C(=O)CCC4)c3ccccc3)C2SC1 (single isomer, unassigned) [Synthesis Example 1, 7-[D-(-)-α-(4-hydroxy-5-oxo-5,6,7,8-tetrahydroquinoline-3-carboxamide)phenylacetamido)-3-[[(1-methyl-1H-tetrazol-5-yl)thio]methyl]-Δ^3-cephem-4-carboxylic acid]
- MIC ([1]; inoculum 10^5 cells/ml): 12.5 µg/mL (≈ 19.2 µM)
- MIC ([1]; inoculum 10^6 cells/ml): 12.5 µg/mL (≈ 19.2 µM)
- MIC ([1]; inoculum 10^7 cells/ml): 25 µg/mL (≈ 38.4 µM)
- MIC (Proteus morganii (C-39)): 3.13 µg/mL
- MIC [2]: 1.56 µg/mL
- MIC [3]: 12.5 µg/mL
- MIC (Shigella flexneri (K-A)): 0.2 µg/mL
- MIC [4]: 0.78 µg/mL
- MIC [5]: 25 µg/mL
- MIC [6]: 12.5 µg/mL
- MIC [7]: 6.25 µg/mL
- concentration at 0.25 h [8]: 12100 ± 3600 ng/mL
- concentration at 0.5 h [8]: 10500 ± 2200 ng/mL
- concentration at 1 h [8]: 9100 ± 3200 ng/mL
- concentration at 2 h [8]: 4800 ± 2100 ng/mL
